Assay type in all cases: cell-based, human
Data set [1] relates to CD34+ADAM8+ cells. The data set can be described thus: Cell viability assay with GM6001, CD34+ADAM8+ cells. The following applies: GM6001 2.5 μM; FIG. 20. Here is the method: (§1) The cell viability assay and apoptosis assay were carried out according to the method described in Ma, L. et al., Sci. Transl. Med. 6, 252ral21(2014).
(§2) CD34+ADAM8+ cells and CD34+ADAM8− cells were used for a cell viability assay in the absence of GM6001 (Merck Millipore) and in the presence of GM6001 at specific concentrations (2.5 μM, 5 μM, 20 μM). […] GM6001 was confirmed to have no effect on the cell viability of either CD34+ADAM8+ cells or CD34+ADAM8− cells, at a concentration of 2.5 μM.

Data set [2] concerns CD34+ADAM8- cells. Kind of data set: Cell viability assay with GM6001, CD34+ADAM8- cells. To be noted: GM6001 2.5 μM; FIG. 20. As to the method: as §1, §2
Data set [3] has as its system CD34+ADAM8+ cells (CML-CP9- and CML-CP23-derived). Kind of data set: Cell viability assay with imatinib plus GM6001. To be noted: 1.0 μM imatinib and 2.5 μM GM6001 vs 1.0 μM imatinib alone; FIG. 21, 22. As to the method:
as §1

The subject of data set [4] is CML-pre-HPCs. The data set can be described thus: Apoptosis assay in hematopoietic differentiation of CML-iPSCs. The following applies: 5 μM imatinib, 48 hours from medium exchange; FIG. 5.
Data set [5] relates to CD34+ADAM8+ CML cells of CML-CP patient. The data set can be described thus: Cell viability assay of CD34+ADAM8+ and CD34+ADAM8- cell fractions with imatinib. To be noted: 48 hours exposure to imatinib; FIG. 11. As to the method: as §1
The test system is the same in data set [6]. The data set can be described thus: Apoptosis assay of CD34+ADAM8+ and CD34+ADAM8- cell fractions with imatinib. The following applies: 48 hours exposure to imatinib; FIG. 12. Here is the method: as §1
Data set [7] deals with mRNA transcribed from the ADAM8 gene in HL60AML cell line. Kind of data set: ADAM8 gene expression inhibition by shRNA (mRNA amount). The following applies: HL60, lentiviral shRNA, 72 hours puromycin selection; non-target_shRNA defined as 1; FIG. 18. As to the method: After extraction of total RNA with RNAeasy reagent (QIAGEN), reverse transcription was performed with ReverTra Ace qPCR RT Master Mix (TOYOBO). The primer sequences used for PCR are shown below. Real-time quantitative PCRs were carried out in ABI-7000 Sequencing System with THUNDERBIRD SYBR qPCR Mix, following the manufacturer's instructions (TOYOBO). Each assay was performed in triplicate. 18S rRNA and β-actin were used as endogenous controls.
The amount of mRNA transcribed from the ADAM8 gene in the cells was measured after treatment of an HL60AML cell line with ADAM8_shRNA 1 (SEQ ID NO: 45), ADAM8_shRNA 2 (SEQ ID NO: 46) and ADAM8_shRNA_3 (SEQ ID NO: 47). The target sequences of ADAM8_shRNA_1, ADAM8_shRNA_2 and ADAM8_shRNA_3 are listed as SEQ ID NO: 49, 50 and 51, respectively. Specifically, pLKO.1-puro-CMV-tGFP (Sigma Aldrich Japan) incorporating DNA encoding shRNA was transferred into HEK293 cells together with pMISSION GAG POL (Sigma Aldrich Japan) and pMISSION VSV-G (Sigma Aldrich Japan), to obtain an shRNA-expressing lentivirus. The obtained lentivirus was used to infect HL60, 1 μg/ml puromycin was used for 72 hours of selection, and ADAM8 gene expression in the selected cells was analyzed. The expression level of the ADAM8 gene when using non-target_shRNA that targets a non-ADAM8 gene (SEQ ID NO: 48, target sequence: SEQ ID NO: 52) (indicated as “non-target” in the graph) was defined as 1.

In the case of `CNC(=O)[C@H](Cc1c[nH]c2ccccc12)NC(=O)[C@@H](CC(=O)NO)CC(C)C` [GM6001, (2R)—N^4-Hydroxy-N^1-[(1S)-2-(1H-indol-3-ylmethyl)-2-(methylamino)-2-oxoethyl]-2-(2-methylpropyl)butanediamide], the “effect on cell viability of CD34+ADAM8+ cells” value in data set [1] is on record as “no effect”. Moreover, the “effect on cell viability of CD34+ADAM8- cells” value in data set [2] is “no effect”. The “TKI resistance (cell viability) on inhibition of ADAM8 activity” value in data set [3] is “TKI resistance is lowered”.

Take `Cc1ccc(NC(=O)c2ccc(CN3CCN(C)CC3)cc2)cc1Nc1nccc(-c2cccnc2)n1` [imatinib]: the “apoptosis induction in CML-pre-HPCs” value in data set [4] is recorded as “not induced to undergo apoptosis”. Further, in data set [5], the “imatinib resistance (cell viability) of ADAM8+ CML cells compared to ADAM8- CML cells” value is on record as “greater imatinib resistance”. Moreover, in data set [6], the “apoptosis induced by imatinib in ADAM8+ CML cells compared to ADAM8- CML cells” value is recorded as “suppressed”.

On to “ADAM8_shRNA_1: shRNA that inhibits expression of the ADAM8 gene, SEQ ID NO: 45, target sequence SEQ ID NO: 49 (CCGGGGACAAGCUAUAUCAGAAACUCUCGAGAGUUUCUGAUAUAGCUUGUCCUUUUU)”, for which, in data set [7], the “knockdown of ADAM8 gene expression (mRNA)” value (“knockdown” below) is “confirmed to have the ability to knockdown ADAM8”.

As to “ADAM8_shRNA_2: shRNA that inhibits expression of the ADAM8 gene, SEQ ID NO: 46, target sequence SEQ ID NO: 50 (CCGGGGGCCUGGAGAUUUGGAAUAGCUCGAGCUAUUCCAAAUCUCCAGGCCCUUUUU)”, the “knockdown” value in data set [7] is listed as “confirmed to have the ability to knockdown ADAM8”.

As for “ADAM8_shRNA_3: shRNA that inhibits expression of the ADAM8 gene, SEQ ID NO: 47, target sequence SEQ ID NO: 51 (CCGGGGAAUAGUCAGGACAGGUUCCCUCGAGGGAACCUGUCCUGACUAUUCCUUUUU)”, the “knockdown” value in data set [7] is on record as “confirmed to have the ability to knockdown ADAM8”.

Source of the values: US20180259530A1, “Method and kit for testing chronic myelogenous leukemia (CML), method for isolating TKI-resistant CML cells, and agent for reducing TKI-resistance of CML and method for screening the same” (The University of Tokyo, priority 2017, published 2018).
